Assay results: paper PMC5578373, “Inhibitory Kappa B Kinase α (IKKα) Inhibitors That Recapitulate Their Selectivity in Cells against Isoform-Related Biomarkers” (Journal of Medicinal Chemistry, 2017)
Where two headings read alike, the source gives them in different places.

Tests used:
[1] = tested on: IKKα-driven p100 phosphorylation in U2OS cells; experiment: FCS-stimulated p100 phosphorylation (Ser866/870) in U2OS cells, Western blot; assay type: cell-based, human; conditions: 1 h pretreatment, FCS (10%) for 4 h, blots quantified, read-out: IC50 for inhibition of p100 phosphorylation
Description: Two IKKβ-dependent readouts were selected to assess selectivity over IKKβ. First, TNFα stimulates IκBα degradation through activation of IKKβ and if IKKβ is inhibited, then a band corresponding to the IκBα protein should be evident by Western analysis. Second, IKKβ phosphorylates p65 on Ser536, which can also be assessed by Western blot analysis. Only at the highest concentration (100 μM) of 48 was IκBα degradation and p65 (Ser536) phosphorylation inhibited (Figure 9b). Even at this high concentration, these effects were not apparent following pretreatment with 47 (Figure 10b).
(§1) Figure 9 Effect of compound 48 on (a) FCS-stimulated noncanonical and (b) TNF-α-induced canonical NF-kB activation in U2OS cells. Cells were pretreated with 48 1 h prior to stimulation with FCS (10%) for 4 h or TNF-α (10 ng/mL) for 30 min. Whole cell lysate were prepared, separated by SDS-PAGE, and assessed for (a) inhibition of p100 phosphorylation (Ser866/870) and (b) IkB-α and p-p65 (Ser536) status. […] The results are representative of three independent experiments.
as §1, with “10” for “9”, “47” for “48”
U2OS cells were cultured with McCoy’s 5A modified medium and MEF were cultured with DEME medium containing 10% (v/v) FCS and medium was changed every 2 d thereafter until cells became confluent. Cells were incubated at 37 °C in humidified air with 5% CO2 and rendered quiescent by serum deprivation for 24 h prior to stimulation in serum-free medium.
Whole cell lysates were prepared from U2OS and status of IκBα, p65, p-p65 (Ser536), and p-p100 (Ser 866/870) assessed by Western blotting as described in Mackenzie et al. (2007).[46]

ALK(h) = target: T1, ALK(h) (Homo sapiens, UniProt Q9UM73); experiment: Millipore Kinase Profiler, single concentration; assay type: biochemical; conditions: duplicate assay points, read-out: % residual activity
T1 construct: purchased Millipore KinaseProfiler
T1 sequence (Q9UM73 19-1620): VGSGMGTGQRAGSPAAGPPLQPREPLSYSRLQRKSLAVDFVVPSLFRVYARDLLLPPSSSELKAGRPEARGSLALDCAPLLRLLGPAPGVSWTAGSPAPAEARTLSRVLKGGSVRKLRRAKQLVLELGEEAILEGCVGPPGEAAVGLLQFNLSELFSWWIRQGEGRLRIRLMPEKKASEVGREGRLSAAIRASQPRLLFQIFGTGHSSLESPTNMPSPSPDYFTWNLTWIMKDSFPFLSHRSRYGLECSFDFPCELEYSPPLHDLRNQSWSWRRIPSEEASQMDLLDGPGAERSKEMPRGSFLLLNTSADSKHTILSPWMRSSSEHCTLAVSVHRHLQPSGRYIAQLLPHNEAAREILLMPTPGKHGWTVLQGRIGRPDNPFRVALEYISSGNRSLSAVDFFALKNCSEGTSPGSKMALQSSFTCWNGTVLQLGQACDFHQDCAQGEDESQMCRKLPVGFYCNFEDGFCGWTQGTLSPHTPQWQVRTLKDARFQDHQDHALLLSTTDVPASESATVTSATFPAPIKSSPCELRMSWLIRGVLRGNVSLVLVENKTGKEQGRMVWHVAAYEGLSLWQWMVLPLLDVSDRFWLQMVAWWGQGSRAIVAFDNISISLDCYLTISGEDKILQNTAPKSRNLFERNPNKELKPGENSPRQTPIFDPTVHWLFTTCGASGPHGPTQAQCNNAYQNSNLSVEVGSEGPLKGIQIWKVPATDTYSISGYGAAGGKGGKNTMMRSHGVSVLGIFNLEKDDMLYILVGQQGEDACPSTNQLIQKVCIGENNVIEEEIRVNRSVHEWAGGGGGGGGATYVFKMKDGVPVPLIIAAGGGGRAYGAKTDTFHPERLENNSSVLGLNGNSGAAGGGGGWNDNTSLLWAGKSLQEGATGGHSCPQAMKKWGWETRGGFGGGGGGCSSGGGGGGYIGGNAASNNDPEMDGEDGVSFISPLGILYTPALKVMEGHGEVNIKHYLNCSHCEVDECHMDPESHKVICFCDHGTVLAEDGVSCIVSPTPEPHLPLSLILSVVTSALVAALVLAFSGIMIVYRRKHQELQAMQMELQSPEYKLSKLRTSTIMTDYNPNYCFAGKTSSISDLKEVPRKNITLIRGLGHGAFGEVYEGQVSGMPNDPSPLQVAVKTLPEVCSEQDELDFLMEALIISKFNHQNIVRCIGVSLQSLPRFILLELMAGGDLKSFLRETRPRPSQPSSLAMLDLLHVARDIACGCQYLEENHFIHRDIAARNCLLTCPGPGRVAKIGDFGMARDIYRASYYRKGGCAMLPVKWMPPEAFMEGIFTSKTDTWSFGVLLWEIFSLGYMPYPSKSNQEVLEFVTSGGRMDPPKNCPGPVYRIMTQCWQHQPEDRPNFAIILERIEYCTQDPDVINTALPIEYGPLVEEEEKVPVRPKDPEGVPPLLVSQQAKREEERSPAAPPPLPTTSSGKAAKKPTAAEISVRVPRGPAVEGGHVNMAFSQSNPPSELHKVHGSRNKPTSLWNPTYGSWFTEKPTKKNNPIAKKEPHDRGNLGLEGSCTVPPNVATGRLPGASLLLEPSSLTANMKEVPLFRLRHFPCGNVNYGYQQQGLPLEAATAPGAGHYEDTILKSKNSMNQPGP
Excerpt: (§2) Kinase profiling of compound 48 was outsourced to Millipore, specifically the Kinase Profiler Customer Service for single concentration studies using duplicate assay points.

AMPKα1(h) = target: T2, AMPKα1(h) (Homo sapiens, UniProt Q13131); experiment: Millipore Kinase Profiler, single concentration; assay type: biochemical; conditions: duplicate assay points, read-out: % residual activity
T2 construct: purchased Millipore KinaseProfiler
Excerpt: as §2

CDK2/cyclinA(h) = target: T3, CDK2/cyclinA(h) (Homo sapiens, UniProt P24941); experiment: Millipore Kinase Profiler, single concentration; assay type: biochemical; conditions: duplicate assay points, read-out: % residual activity
T3 construct: purchased Millipore KinaseProfiler
Excerpt: as §2

CHK2(h) = target: T4, CHK2(h) (Homo sapiens, UniProt O96017); experiment: Millipore Kinase Profiler, single concentration; assay type: biochemical; conditions: duplicate assay points, read-out: % residual activity
T4 construct: purchased Millipore KinaseProfiler
Excerpt: as §2

CK1δ(h) = target: T5, CK1δ(h) (Homo sapiens, UniProt P48730); experiment: Millipore Kinase Profiler, single concentration; assay type: biochemical; conditions: duplicate assay points, read-out: % residual activity
T5 construct: purchased Millipore KinaseProfiler
Excerpt: as §2

CaMKIV(h) = target: T6, CaMKIV(h) (Homo sapiens, UniProt Q16566); experiment: Millipore Kinase Profiler, single concentration; assay type: biochemical; conditions: duplicate assay points, read-out: % residual activity
T6 construct: purchased Millipore KinaseProfiler
Excerpt: as §2

DAPK1(h) = target: T7, DAPK1(h) (Homo sapiens, UniProt P53355); experiment: Millipore Kinase Profiler, single concentration; assay type: biochemical; conditions: duplicate assay points, read-out: % residual activity
T7 construct: purchased Millipore KinaseProfiler
Excerpt: as §2

EGFR(h) = target: T8, EGFR(h) (Homo sapiens, UniProt P00533); experiment: Millipore Kinase Profiler, single concentration; assay type: biochemical; conditions: duplicate assay points, read-out: % residual activity
T8 construct: purchased Millipore KinaseProfiler
Excerpt: as §2

EphB4(h) = target: T9, EphB4(h) (Homo sapiens, UniProt P54760); experiment: Millipore Kinase Profiler, single concentration; assay type: biochemical; conditions: duplicate assay points, read-out: % residual activity
T9 construct: purchased Millipore KinaseProfiler
T9 sequence (P54760 16-987): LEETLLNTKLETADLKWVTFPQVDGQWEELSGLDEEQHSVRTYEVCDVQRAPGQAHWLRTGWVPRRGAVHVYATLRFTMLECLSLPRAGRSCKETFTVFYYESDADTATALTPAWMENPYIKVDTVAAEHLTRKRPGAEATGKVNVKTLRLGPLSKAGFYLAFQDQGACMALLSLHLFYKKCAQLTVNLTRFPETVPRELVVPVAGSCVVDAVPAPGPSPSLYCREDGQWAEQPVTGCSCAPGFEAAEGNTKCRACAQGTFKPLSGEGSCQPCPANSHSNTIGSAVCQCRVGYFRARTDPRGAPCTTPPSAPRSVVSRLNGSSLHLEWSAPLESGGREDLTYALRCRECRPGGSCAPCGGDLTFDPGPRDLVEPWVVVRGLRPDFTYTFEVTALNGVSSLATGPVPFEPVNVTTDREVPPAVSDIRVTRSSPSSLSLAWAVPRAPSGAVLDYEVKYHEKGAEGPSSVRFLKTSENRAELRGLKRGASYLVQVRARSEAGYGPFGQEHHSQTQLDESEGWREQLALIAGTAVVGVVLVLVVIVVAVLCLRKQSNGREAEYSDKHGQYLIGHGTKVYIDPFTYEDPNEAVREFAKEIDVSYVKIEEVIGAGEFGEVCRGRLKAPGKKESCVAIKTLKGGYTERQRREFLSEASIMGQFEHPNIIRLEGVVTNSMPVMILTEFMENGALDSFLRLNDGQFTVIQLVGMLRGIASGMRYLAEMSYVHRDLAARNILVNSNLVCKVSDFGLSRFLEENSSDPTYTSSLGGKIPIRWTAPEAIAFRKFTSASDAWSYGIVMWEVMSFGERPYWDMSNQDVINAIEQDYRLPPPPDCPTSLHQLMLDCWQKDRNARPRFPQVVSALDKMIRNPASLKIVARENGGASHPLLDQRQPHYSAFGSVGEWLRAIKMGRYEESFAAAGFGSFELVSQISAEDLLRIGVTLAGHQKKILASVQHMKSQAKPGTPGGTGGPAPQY
Excerpt: as §2

GSK3β(h) = target: T10, GSK3β(h) (Homo sapiens, UniProt P49841); experiment: Millipore Kinase Profiler, single concentration; assay type: biochemical; conditions: duplicate assay points, read-out: % residual activity
T10 construct: purchased Millipore KinaseProfiler
T10 sequence (P49841 whole entry): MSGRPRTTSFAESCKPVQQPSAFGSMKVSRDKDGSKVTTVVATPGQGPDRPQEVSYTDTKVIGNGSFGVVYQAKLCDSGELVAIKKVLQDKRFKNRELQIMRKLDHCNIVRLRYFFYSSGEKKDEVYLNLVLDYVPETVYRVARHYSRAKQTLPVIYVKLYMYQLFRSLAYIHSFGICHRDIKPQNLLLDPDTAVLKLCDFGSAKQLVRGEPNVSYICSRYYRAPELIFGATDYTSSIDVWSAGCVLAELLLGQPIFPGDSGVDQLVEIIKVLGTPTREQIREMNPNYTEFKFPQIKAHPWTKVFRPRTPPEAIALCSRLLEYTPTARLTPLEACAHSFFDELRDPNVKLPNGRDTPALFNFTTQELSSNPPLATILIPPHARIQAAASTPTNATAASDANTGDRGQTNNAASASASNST
Excerpt: as §2

HIPK1(h) = target: T11, HIPK1(h) (Homo sapiens, UniProt Q86Z02); experiment: Millipore Kinase Profiler, single concentration; assay type: biochemical; conditions: duplicate assay points, read-out: % residual activity
T11 construct: purchased Millipore KinaseProfiler
Excerpt: as §2

JAK2(h) = target: T12, JAK2(h) (Homo sapiens, UniProt O60674); experiment: Millipore Kinase Profiler, single concentration; assay type: biochemical; conditions: duplicate assay points, read-out: % residual activity
T12 construct: purchased Millipore KinaseProfiler
Excerpt: as §2

MEK1(h) = target: T13, MEK1(h) (Homo sapiens, UniProt Q02750); experiment: Millipore Kinase Profiler, single concentration; assay type: biochemical; conditions: duplicate assay points, read-out: % residual activity
T13 construct: purchased Millipore KinaseProfiler
Excerpt: as §2

MST2(h) = target: T14, MST2(h) (Homo sapiens, UniProt Q13188); experiment: Millipore Kinase Profiler, single concentration; assay type: biochemical; conditions: duplicate assay points, read-out: % residual activity
T14 construct: purchased Millipore KinaseProfiler
Excerpt: as §2

NEK2(h) = target: T15, NEK2(h) (Homo sapiens, UniProt P51955); experiment: Millipore Kinase Profiler, single concentration; assay type: biochemical; conditions: duplicate assay points, read-out: % residual activity
T15 construct: purchased Millipore KinaseProfiler
Excerpt: as §2

PAK2(h) = target: T16, PAK2(h) (Homo sapiens, UniProt Q13177); experiment: Millipore Kinase Profiler, single concentration; assay type: biochemical; conditions: duplicate assay points, read-out: % residual activity
T16 construct: purchased Millipore KinaseProfiler
Excerpt: as §2

PDGFRβ(h) = target: T17, PDGFRβ(h) (Homo sapiens, UniProt P09619); experiment: Millipore Kinase Profiler, single concentration; assay type: biochemical; conditions: duplicate assay points, read-out: % residual activity
T17 construct: purchased Millipore KinaseProfiler
Excerpt: as §2

PKCα(h) = target: T18, PKCα(h) (Homo sapiens, UniProt P17252); experiment: Millipore Kinase Profiler, single concentration; assay type: biochemical; conditions: duplicate assay points, read-out: % residual activity
T18 construct: purchased Millipore KinaseProfiler
Excerpt: as §2

PKCη(h) = target: T19, PKCη(h) (Homo sapiens, UniProt P24723); experiment: Millipore Kinase Profiler, single concentration; assay type: biochemical; conditions: duplicate assay points, read-out: % residual activity
T19 construct: purchased Millipore KinaseProfiler
T19 sequence (P24723 whole entry): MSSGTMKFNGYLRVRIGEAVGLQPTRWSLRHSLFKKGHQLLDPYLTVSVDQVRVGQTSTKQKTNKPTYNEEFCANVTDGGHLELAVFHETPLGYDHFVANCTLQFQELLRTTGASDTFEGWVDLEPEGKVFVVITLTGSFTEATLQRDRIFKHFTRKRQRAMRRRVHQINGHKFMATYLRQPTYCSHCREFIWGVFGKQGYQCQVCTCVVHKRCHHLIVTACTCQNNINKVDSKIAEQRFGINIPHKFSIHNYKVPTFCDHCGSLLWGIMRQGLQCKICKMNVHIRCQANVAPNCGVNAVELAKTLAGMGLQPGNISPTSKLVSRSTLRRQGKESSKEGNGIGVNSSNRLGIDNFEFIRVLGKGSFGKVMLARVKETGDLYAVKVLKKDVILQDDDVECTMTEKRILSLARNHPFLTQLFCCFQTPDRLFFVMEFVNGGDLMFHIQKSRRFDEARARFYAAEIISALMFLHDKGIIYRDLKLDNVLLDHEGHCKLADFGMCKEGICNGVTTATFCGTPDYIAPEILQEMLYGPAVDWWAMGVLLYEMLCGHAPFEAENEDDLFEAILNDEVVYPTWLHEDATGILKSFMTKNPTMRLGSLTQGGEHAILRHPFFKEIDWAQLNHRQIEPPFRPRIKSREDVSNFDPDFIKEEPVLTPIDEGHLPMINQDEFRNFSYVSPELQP
Excerpt: as §2

PKCμ(h) = target: T20, PKCμ(h) (Homo sapiens, UniProt Q15139); experiment: Millipore Kinase Profiler, single concentration; assay type: biochemical; conditions: duplicate assay points, read-out: % residual activity
T20 construct: purchased Millipore KinaseProfiler
Excerpt: as §2

PKD2(h) = target: T21, PKD2(h) (Homo sapiens, UniProt Q9BZL6); experiment: Millipore Kinase Profiler, single concentration; assay type: biochemical; conditions: duplicate assay points, read-out: % residual activity
T21 construct: purchased Millipore KinaseProfiler
Excerpt: as §2

ROCK-II(h) = target: T22, ROCK-II(h) (Homo sapiens, UniProt O75116); experiment: Millipore Kinase Profiler, single concentration; assay type: biochemical; conditions: duplicate assay points, read-out: % residual activity
T22 construct: purchased Millipore KinaseProfiler
T22 sequence (O75116 whole entry): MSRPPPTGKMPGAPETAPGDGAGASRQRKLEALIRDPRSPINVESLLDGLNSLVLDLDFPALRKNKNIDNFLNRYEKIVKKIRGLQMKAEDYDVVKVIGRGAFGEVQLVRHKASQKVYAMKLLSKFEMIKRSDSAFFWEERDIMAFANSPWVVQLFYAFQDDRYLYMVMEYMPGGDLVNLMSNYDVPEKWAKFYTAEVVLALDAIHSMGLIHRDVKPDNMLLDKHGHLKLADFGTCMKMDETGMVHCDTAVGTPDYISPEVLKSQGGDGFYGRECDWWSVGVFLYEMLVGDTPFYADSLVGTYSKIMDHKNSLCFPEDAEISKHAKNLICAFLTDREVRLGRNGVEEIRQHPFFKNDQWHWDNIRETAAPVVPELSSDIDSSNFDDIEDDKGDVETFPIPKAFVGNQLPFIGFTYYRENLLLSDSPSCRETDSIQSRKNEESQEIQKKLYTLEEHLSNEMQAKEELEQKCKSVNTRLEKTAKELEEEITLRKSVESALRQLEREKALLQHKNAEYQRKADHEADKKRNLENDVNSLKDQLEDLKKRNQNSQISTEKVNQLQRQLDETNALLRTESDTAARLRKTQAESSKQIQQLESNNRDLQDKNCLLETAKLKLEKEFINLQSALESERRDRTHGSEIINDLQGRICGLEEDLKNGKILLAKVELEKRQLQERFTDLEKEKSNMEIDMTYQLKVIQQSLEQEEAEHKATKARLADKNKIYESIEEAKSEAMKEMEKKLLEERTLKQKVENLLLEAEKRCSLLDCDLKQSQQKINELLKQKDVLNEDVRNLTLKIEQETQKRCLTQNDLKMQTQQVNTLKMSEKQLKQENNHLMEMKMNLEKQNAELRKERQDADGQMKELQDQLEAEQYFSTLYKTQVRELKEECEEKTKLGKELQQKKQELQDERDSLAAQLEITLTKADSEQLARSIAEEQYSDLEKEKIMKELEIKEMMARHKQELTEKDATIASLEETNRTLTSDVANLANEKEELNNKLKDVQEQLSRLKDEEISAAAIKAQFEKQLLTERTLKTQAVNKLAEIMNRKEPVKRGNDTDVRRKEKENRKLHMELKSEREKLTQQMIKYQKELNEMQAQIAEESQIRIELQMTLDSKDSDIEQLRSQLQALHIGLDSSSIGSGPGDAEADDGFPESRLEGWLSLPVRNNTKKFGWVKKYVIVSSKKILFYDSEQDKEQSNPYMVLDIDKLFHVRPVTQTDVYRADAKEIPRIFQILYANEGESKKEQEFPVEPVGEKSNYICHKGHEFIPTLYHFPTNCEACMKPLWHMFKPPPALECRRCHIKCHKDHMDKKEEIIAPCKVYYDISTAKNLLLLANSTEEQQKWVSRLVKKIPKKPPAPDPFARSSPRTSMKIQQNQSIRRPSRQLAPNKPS
Excerpt: as §2

Rsk1(h) = target: T23, Rsk1(h) (Homo sapiens, UniProt Q15418); experiment: Millipore Kinase Profiler, single concentration; assay type: biochemical; conditions: duplicate assay points, read-out: % residual activity
T23 construct: purchased Millipore KinaseProfiler
Excerpt: as §2

TrkB(h) = target: T24, TrkB(h) (Homo sapiens, UniProt Q16620); experiment: Millipore Kinase Profiler, single concentration; assay type: biochemical; conditions: duplicate assay points, read-out: % residual activity
T24 construct: purchased Millipore KinaseProfiler
Excerpt: as §2

ZAP-70(h) = target: T25, ZAP-70(h) (Homo sapiens, UniProt P43403); experiment: Millipore Kinase Profiler, single concentration; assay type: biochemical; conditions: duplicate assay points, read-out: % residual activity
T25 construct: purchased Millipore KinaseProfiler
Excerpt: as §2

c-RAF(h) = target: T26, c-RAF(h) (Homo sapiens, UniProt P04049); experiment: Millipore Kinase Profiler, single concentration; assay type: biochemical; conditions: duplicate assay points, read-out: % residual activity
T26 construct: purchased Millipore KinaseProfiler
Excerpt: as §2

cSRC(h) = target: T27, cSRC(h) (Homo sapiens, UniProt P12931); experiment: Millipore Kinase Profiler, single concentration; assay type: biochemical; conditions: duplicate assay points, read-out: % residual activity
T27 construct: purchased Millipore KinaseProfiler
Excerpt: as §2

IC50 [1]: 5.8 µM
IC50 ([1]; Homo sapiens, U2OS): 8.8 µM
remaining activity at 10 µM (ALK(h)): 84%
remaining activity at 10 µM (AMPKα1(h)): 22%
remaining activity at 10 µM (CDK2/cyclinA(h)): 20%
remaining activity at 10 µM (CHK2(h)): 17%
remaining activity at 10 µM (CK1δ(h)): 4%
remaining activity at 10 µM (CaMKIV(h)): 37%
remaining activity at 10 µM (DAPK1(h)): 99%
remaining activity at 10 µM (EGFR(h)): 108%
remaining activity at 10 µM (EphB4(h)): 56%
remaining activity at 10 µM (GSK3β(h)): 16%
remaining activity at 10 µM (HIPK1(h)): 90%
remaining activity at 10 µM (JAK2(h)): 29%
remaining activity at 10 µM (MEK1(h)): 14%
remaining activity at 10 µM (MST2(h)): 59%
remaining activity at 10 µM (NEK2(h)): 96%
remaining activity at 10 µM (PAK2(h)): 73%
remaining activity at 10 µM (PDGFRβ(h)): 104%
remaining activity at 10 µM (PKCα(h)): 41%
remaining activity at 10 µM (PKCη(h)): 53%
remaining activity at 10 µM (PKCμ(h)): 10%
remaining activity at 10 µM (PKD2(h)): 26%
remaining activity at 10 µM (ROCK-II(h)): 20%
remaining activity at 10 µM (Rsk1(h)): 39%
remaining activity at 10 µM (TrkB(h)): 31%
remaining activity at 10 µM (ZAP-70(h)): 138%
remaining activity at 10 µM (c-RAF(h)): 37%
remaining activity at 10 µM (cSRC(h)): 76%
SMILES: N#Cc1c[nH]c2nc(N)nc(-c3ccc(S(N)(=O)=O)cc3)c12 [Compound 48, 4-(2-Amino-5-cyano-7H-pyrrolo[2,3-d]pyrimidin-4-yl)benzenesulfonamide]
